Key:
[1] = test system: C2C12 Myoblasts; test: Effect of 2,4 DNP on O2, CO2 and pH flux rates of C2C12 myoblasts (prototype enclosed sample chamber); assay type: cell-based, murine; conditions: for CO2 Rate / O2 Rate / pH Rate: 20 minute measurement
Excerpt: (§1) The device included a cylindrical vessel, fabricated from polycarbonate material, and designed to receive a 12 mm diameter, polycarbonate membrane assembly (Corning Snapwell™ P/N 3802) with a pore size of approximately 3 μm. A cylindrical polycarbonate cover could be temporarily inserted into the vessel to form a smaller sample chamber, approximately 1.5 mm high, with a volume of about 160 microliter (μl). A series of bores around the perimeter of the vessel allowed the insertion of three 500 μm diameter optical fibers. The distal tip of each optical fiber was coated with a fluorescent sensing material to form a biosensor.
(§2) The three biosensors were designed to measure the partial pressures of O2 and CO2, and the pH of the media contained within the vessel. One fiber tip was coated with a matrix of Ruthenium dyes, encapsulated in oxygen permeable silicone rubber, to provide a readout of dissolved oxygen concentration. A second fiber tip was coated with a complex of Fluoroscene dye encapsulated in silicone rubber, to provide a readout of H^+ ion concentration (pH). A third biosensor was fabricated by using a CO2 permeable membrane to create a small reservoir of NaHCO3 surrounding a HydroxyPyrene Trisodium Salt (HPTS) pH sensitive dye. A change in CO2 concentration in the cell media would then cause a change in pH of this encapsulated reagent resulting in a measurable change in the fluorescent properties of the pH sensitive dye, and this change was calibrated to provide quantitative CO2 concentration data.
(§3) To determine the extracellular flux rates of O2 and CO2, the rates of change of partial pressures were divided by volume of each analytes available in the media (moles) to result in a value expressed in nmol/minute. The rate of acidification was expressed in mpH units/min (multiplied by 20 for scaling on the chart), but can easily be shown as protons per minute by calculating the number of available […] in the media buffer within the known sample volume.
In this experiment, C2C12 myoblasts were seeded on 12 mm diameter polycarbonate membranes and incubated for 12 hours. Wells were then removed from the incubator, inspected visually, and placed into the measurement device. 160 μl of NaHCO3-free DMEM medium was then added, and the device was assembled to form an enclosed sample chamber.
(§4) The dissolved concentrations of O2 and CO2, and the pH in the media were then measured every 5 seconds for a period of 20 minutes in order to determine a control baseline for each analyte flux. Once the baseline was established, a sequence of experiments were performed where varying doses of 2,4 DNP (obtained from Sigma, St. Louis Mo.) were added to the cell media and a 20 minute measurement of analyte flux rates was performed. A control experiment was also performed using the highest dose of 2,4 DNP, but without cells.

[2] = test system: C2C12 Myoblasts; test: Effect of Rotenone on O2, CO2 and pH flux rates of C2C12 myoblasts (prototype enclosed sample chamber); assay type: cell-based, murine; design: key to O2 Rate / CO2 Rate: flux rate in nmol/minute; conditions: for CO2 Rate / O2 Rate / pH Rate: 20 minute measurement
Excerpt: as §1, §2, §3
Rotenone is known to inhibit cellular respiration by blocking NADH dehydrogenase in the respiratory chain. C2C12 Myoblasts were used to show this effect. 1.5×10^5 C2C12 myoblasts were seeded on membranes, incubated and placed in the measurement system along with 150 μl NaHCO3-free DMEM medium of as described in Example 3.
as §4, with “Rotenone” for “2,4 DNP”, “Rotenone,” for “2,4 DNP,”

[3] = test system: CHO-M3 cells; test: Effect of carbachol on O2 consumption, CO2 production and extracellular acidification rates of CHO-M3 cells (stop flow cycles); assay type: cell-based, Chinese hamster
Excerpt: Chinese hamster ovary (CHO) cells were transfected to over-express the muscarinic receptor subtype m3. The prototype device described in Example 1 was then used to monitor O2 consumption, CO2 production, and extracellular acidification rates, following treatment with the well-known, general acetylcholine receptor agonist, Carbachol.
Materials and Methods: Cell culture reagents were obtained from Gibco BRL (Grand Island, N.Y.). Carbachol was purchased from Sigma Chemical Co. (St. Louis, Mo.). Bicarbonate-free DMEM medium was obtained from Specialty Media (Phillipsburg, N.J.). Polycarbonate membrane snapwells (12 mm diameter, 3 μm pore size) were obtained from Corning (Corning, N.Y.). CHO cells expressing m3-muscarinic receptors (CHO-M3 cells) were obtained from the American Type Tissue Culture (ATCC; Manassas, Va.). Cells were cultured in Ham's F-12 medium supplemented with 10% fetal bovine serum (Hyclone), 1% GlutaMax and 0.1% Gentamicin and were maintained in a 5% CO2 incubator. Cells were subcultured when they reached 80% confluency. CHO-M3 cells were seeded at a density of 2×10^5 onto a snapwell 24 hours prior to use. Immediately prior to testing, cells on snapwells were switched to bicarbonate-free DMEM medium combined with 3.7 g/l NaCl to maintain osmolarity (medium pH 7.4-7.5).
Protocol Description: Probes were calibrated immediately prior to testing. The bottom of the test vessel was filled with bicarbonate-free medium. The snapwell was removed from a 5% CO2 incubator, and the regular growth medium (Ham's F-12) was replaced with bicarbonate-free DMEM medium. Thereafter, the snapwell was placed into the test vessel. Bicarbonate-free medium was pipetted onto the top of the snapwell, and the cover piece of the test vessel was placed gently on top of the snapwell and screwed into place, compressing the assembly. The probe software was started, and the pH, CO2 and O2 analytes were measured over the next 3.5 hours. Following the initial 1.5 hours of perfusion at a rate of 78 μl/min, a series of stop flow (10 minutes each) and medium re-perfusion (10 minutes each, 78 μl/min) cycles were started. During the last 2 minutes of medium re-perfusion cycle number 5, 100 μM carbachol was perfused across the snapwell. During re-perfusion number 6, bicarbonate-free DMEM medium was once again perfused across the snapwell. A rate of change for the analytes was calculated during each stop flow cycle.
The first four series of perfusion/stop flow cycles were done to establish a noise band on the three analytes prior to carbachol treatment during perfusion number 5. Bicarbonate-free medium re-perfusion during per perfusion number 6 and the rates calculated during stop flow number 6 were to assess potential continuing post-carbachol treatment effects on analytes' rates. Resulting data are shown below in Table 6 and in FIG. 11.

[4] = Rotenone dose 25 (unit not given)
[5] = Rotenone dose 50 (unit not given)
[6] = Rotenone dose 100 (unit not given)
[7] = Rotenone dose 200 (unit not given)
[8] = Stop Flow 5, after 2-minute exposure to 100 μM carbachol
[9] = Stop Flow 6, post-carbachol, after re-perfusion with bicarbonate-free medium

With O=[N+]([O-])c1ccc(O)c([N+](=O)[O-])c1 [2,4 DNP] the CO2/O2 ([1]; 2,4 DNP dose 10 μm) was 2.18, the O2/pH ([1]; 2,4 DNP dose 10 μm) was 0.46 and the “CO2 Rate” value ([1]; 2,4 DNP dose 10 μm) was 2.78 nM/min. For the same compound, the “O2 Rate” value ([1]; 2,4 DNP dose 10 μm) was 1.26 nM/min, the “pH Rate” value ([1]; 2,4 DNP dose 10 μm) was 0.028 pH/min and the CO2/O2 ([1]; 2,4 DNP dose 50 μm) was 2.13. The O2/pH ([1]; 2,4 DNP dose 50 μm) was 0.64, the “CO2 Rate” value ([1]; 2,4 DNP dose 50 μm) was 4.24 nM/min and the “O2 Rate” value ([1]; 2,4 DNP dose 50 μm) was 1.99 nM/min. The “pH Rate” value ([1]; 2,4 DNP dose 50 μm) was 0.031 pH/min, the CO2/O2 ([1]; 2,4 DNP dose 100 μm) was 2.00 and the O2/pH ([1]; 2,4 DNP dose 100 μm) was 0.73. For the same compound, the “CO2 Rate” value ([1]; 2,4 DNP dose 100 μm) was 4.59 nM/min, the “O2 Rate” value ([1]; 2,4 DNP dose 100 μm) was 2.30 nM/min and the “pH Rate” value ([1]; 2,4 DNP dose 100 μm) was 0.032 pH/min. For the same compound, the “O2 consumption rates (effect of treatment)” value ([1]; over doses of Table 3) was “dose-dependent increase” and the “extracellular acidification (effect of treatment)” value ([1]; over doses of Table 3) was “little effect”.
For C=C(C)[C@H]1Cc2c(ccc3c2O[C@@H]2COc4cc(OC)c(OC)cc4[C@@H]2C3=O)O1 [Rotenone], the CO2/O2 [2, 4] was 4.00, the O2/pH [2, 4] was 0.17 and the “CO2 Rate” value [2, 4] was 1.76. The “O2 Rate” value [2, 4] was 0.44, the “pH Rate” value [2, 4] was 0.026 and the CO2/O2 [2, 5] was 8.02. The O2/pH [2, 5] was 0.08, the “CO2 Rate” value [2, 5] was 2.08 and the “O2 Rate” value [2, 5] was 0.26. The “pH Rate” value [2, 5] was 0.031, the CO2/O2 [2, 6] was 12.18 and the O2/pH [2, 6] was 0.09. The “CO2 Rate” value [2, 6] was 2.34, the “O2 Rate” value [2, 6] was 0.19 and the “pH Rate” value [2, 6] was 0.023. For the same compound, the CO2/O2 [2, 7] was 69.84, the O2/pH [2, 7] was 0.02 and the “CO2 Rate” value [2, 7] was 2.24. For the same compound, the “O2 Rate” value [2, 7] was 0.04, the “pH Rate” value [2, 7] was 0.027 and the “O2 consumption rate (effect of treatment)” value ([2]; over doses of Table 4) was “dose-dependent decrease”.
C[N+](C)(C)CCOC(N)=O [carbachol, Carbachol] was tested, and the “CO2 rate versus baseline” value ([3]; 2-minute exposure to carbachol) was “increases above baseline levels”, the “O2 rate versus baseline” value ([3]; 2-minute exposure to carbachol) was “increases above baseline levels” and the “change in pH rate versus average baseline” value ([3]; 2-minute exposure to carbachol, 0.01 PHU/min baseline) was “doubling”. For the same compound, the CO2 Rate [3, 8] was 0.20 nmol/min, the “O2/CO2 Ratio” value [3, 8] was 1.99 and the “O2/pH Ratio” value [3, 8] was 0.26. The O2 Rate [3, 8] was 0.40 nmol/min, the pH Rate [3, 8] was 0.02 PHU/min and the CO2 Rate [3, 9] was 0.10 nmol/min. For the same compound, the “O2/CO2 Ratio” value [3, 9] was 3.34, the “O2/pH Ratio” value [3, 9] was 0.29 and the O2 Rate [3, 9] was 0.33 nmol/min. For the same compound, the pH Rate [3, 9] was 0.01 PHU/min and the “Post-treatment rates versus pre-treatment values” ([3]; stop flow period number 6) was “essentially returned to pre-treatment values”.
